# In PubChem BioAssay AID252 (DTP/NCI, 2004):
# Several values for one entry are separate records, joined by “and”; a condition that tells them apart may be missing. Equal entries are not always repeated. Inconclusive results and toxic doses are left out.
# Tested on: BDF1 mice, intracerebral L1210 leukemia, survival T/C
# Assay: NCI In Vivo Anticancer Drug Screen. Data for tumor model L1210 Leukemia (intracerebral) in B6D2F1 (BDF1) mice
# Settings: higher = longer survival
# Summary of the method: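 Antitumour effect is judged in mice with transplanted tumour by comparing survival of treated (T) against vehicle-dosed (C) groups as T/C.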
smiles,measurement,setting,value
O=NN(CCCl)C(=O)N[C@H]1CCCC[C@H]1O,T/C,"endpoint: mean survival time, dose: 18.0 mg/kg/injection, schedule: Q01DX001 (ip), vehicle: saline with Tween-80",220 % of control
same,T/C,"endpoint: mean survival time, dose: 26.0 mg/kg/injection, schedule: Q01DX001 (ip), vehicle: saline with Tween-80",408 % of control
same,T/C,"endpoint: mean survival time, dose: 40.0 mg/kg/injection, schedule: Q01DX001 (ip), vehicle: saline with Tween-80",352 % of control
same,T/C,"endpoint: mean survival time, dose: 60.0 mg/kg/injection, schedule: Q01DX001 (ip), vehicle: saline with Tween-80",193 % of control
O=NN(CCF)C(=O)NCCCl,T/C,"endpoint: mean survival time, dose: 9.0 mg/kg/injection, schedule: Q01DX001 (ip), vehicle: Klucel (hydroxypropylcellulose) (HPC)",156 % of control and 203 % of control
same,T/C,"endpoint: mean survival time, dose: 14.0 mg/kg/injection, schedule: Q01DX001 (ip), vehicle: Klucel (hydroxypropylcellulose) (HPC)",233 % of control and 338 % of control
same,T/C,"endpoint: mean survival time, dose: 21.0 mg/kg/injection, schedule: Q01DX001 (ip), vehicle: Klucel (hydroxypropylcellulose) (HPC)",456 % of control and 513 % of control
same,T/C,"endpoint: mean survival time, dose: 32.0 mg/kg/injection, schedule: Q01DX001 (ip), vehicle: Klucel (hydroxypropylcellulose) (HPC)",622 % of control and 710 % of control
same,T/C,"endpoint: mean survival time, dose: 48.0 mg/kg/injection, schedule: Q01DX001 (ip), vehicle: Klucel (hydroxypropylcellulose) (HPC)",727 % of control
same,T/C,"endpoint: mean survival time, dose: 71.0 mg/kg/injection, schedule: Q01DX001 (ip), vehicle: Klucel (hydroxypropylcellulose) (HPC)",228 % of control
O=C1C=C(N2CC2)C(=O)C(N2CC2)=C1N1CC1,T/C,"endpoint: mean survival time, dose: 0.01 mg/kg/injection, schedule: Q01DX009 (ip), vehicle: saline",94 % of control
same,T/C,"endpoint: mean survival time, dose: 0.02 mg/kg/injection, schedule: Q01DX009 (ip), vehicle: saline",100 % of control
same,T/C,"endpoint: mean survival time, dose: 0.05 mg/kg/injection, schedule: Q01DX009 (ip), vehicle: saline",116 % of control
O=NN(CCCl)C(=O)NC1CCCC1,T/C,"endpoint: mean survival time, dose: 18.0 mg/kg/injection, schedule: Q01DX001 (ip), vehicle: saline",170 % of control
same,T/C,"endpoint: mean survival time, dose: 19.0 mg/kg/injection, schedule: Q01DX001 (ip), vehicle: saline",163 % of control and 234 % of control
same,T/C,"endpoint: mean survival time, dose: 25.0 mg/kg/injection, schedule: Q01DX001 (ip), vehicle: saline",157 % of control
same,T/C,"endpoint: mean survival time, dose: 28.0 mg/kg/injection, schedule: Q01DX001 (ip), vehicle: saline",264 % of control
same,T/C,"endpoint: mean survival time, dose: 30.0 mg/kg/injection, schedule: Q01DX001 (ip), vehicle: saline",157 % of control and 190 % of control
same,T/C,"endpoint: mean survival time, dose: 38.0 mg/kg/injection, schedule: Q01DX001 (ip), vehicle: saline",231 % of control and 244 % of control
same,T/C,"endpoint: mean survival time, dose: 42.0 mg/kg/injection, schedule: Q01DX001 (ip), vehicle: saline",250 % of control
same,T/C,"endpoint: mean survival time, dose: 44.0 mg/kg/injection, schedule: Q01DX001 (ip), vehicle: saline",234 % of control
same,T/C,"endpoint: mean survival time, dose: 50.0 mg/kg/injection, schedule: Q01DX001 (ip), vehicle: saline",333 % of control
same,T/C,"endpoint: mean survival time, dose: 64.0 mg/kg/injection, schedule: Q01DX001 (ip), vehicle: saline",278 % of control
same,T/C,"endpoint: mean survival time, dose: 67.0 mg/kg/injection, schedule: Q01DX001 (ip), vehicle: saline",209 % of control
same,T/C,"endpoint: mean survival time, dose: 75.0 mg/kg/injection, schedule: Q01DX001 (ip), vehicle: saline",431 % of control and 485 % of control
same,T/C,"endpoint: mean survival time, dose: 100.0 mg/kg/injection, schedule: Q01DX001 (ip), vehicle: saline",257 % of control and 284 % of control
same,T/C,"endpoint: mean survival time, dose: 150.0 mg/kg/injection, schedule: Q01DX001 (ip), vehicle: saline",273 % of control and 342 % of control and 363 % of control
same,T/C,"endpoint: mean survival time, dose: 220.0 mg/kg/injection, schedule: Q01DX001 (ip), vehicle: saline",101 % of control
CC(=O)OC1CCC(NC(=O)N(CCF)N=O)CC1 (configuration not stated),T/C,"endpoint: mean survival time, dose: 24.0 mg/kg/injection, schedule: Q01DX001 (ip), vehicle: other",276 % of control
same,T/C,"endpoint: mean survival time, dose: 32.0 mg/kg/injection, schedule: Q01DX001 (oral), vehicle: other",516 % of control
same,T/C,"endpoint: mean survival time, dose: 36.0 mg/kg/injection, schedule: Q01DX001 (ip), vehicle: other",509 % of control
Cc1c(O)ccc(=O)n1O,T/C,"endpoint: mean survival time, dose: 49.0 mg/kg/injection, schedule: Q01DX Z (ip), vehicle: other",98 % of control
same,T/C,"endpoint: mean survival time, dose: 73.0 mg/kg/injection, schedule: Q01DX Z (ip), vehicle: other",96 % of control
same,T/C,"endpoint: mean survival time, dose: 110.0 mg/kg/injection, schedule: Q01DX Z (ip), vehicle: other",93 % of control
same,T/C,"endpoint: mean survival time, dose: 165.0 mg/kg/injection, schedule: Q01DX Z (ip), vehicle: other",110 % of control
same,T/C,"endpoint: mean survival time, dose: 247.0 mg/kg/injection, schedule: Q01DX Z (ip), vehicle: other",92 % of control
N#[N+]c1cnc([O-])[nH]c1=O,T/C,"endpoint: mean survival time, dose: 5.0 mg/kg/injection, schedule: Q01DX015 (ip), vehicle: alkali diluted with saline",102 % of control
same,T/C,"endpoint: mean survival time, dose: 7.7 mg/kg/injection, schedule: Q01DX015 (ip), vehicle: alkali diluted with saline",101 % of control
same,T/C,"endpoint: mean survival time, dose: 11.5 mg/kg/injection, schedule: Q01DX015 (ip), vehicle: alkali diluted with saline",106 % of control
same,T/C,"endpoint: mean survival time, dose: 12.0 mg/kg/injection, schedule: Q01DX001 (ip), vehicle: alkali diluted with saline",97 % of control
same,T/C,"endpoint: mean survival time, dose: 15.0 mg/kg/injection, schedule: Q01DX Z (ip), vehicle: alkali diluted with saline",101 % of control
same,T/C,"endpoint: mean survival time, dose: 19.0 mg/kg/injection, schedule: Q01DX001 (ip), vehicle: alkali diluted with saline",102 % of control
same,T/C,"endpoint: mean survival time, dose: 20.0 mg/kg/injection, schedule: Q01DX Z (ip), vehicle: alkali diluted with saline",97 % of control
same,T/C,"endpoint: mean survival time, dose: 25.0 mg/kg/injection, schedule: Q01DX Z (ip), vehicle: alkali diluted with saline",92 % of control
same,T/C,"endpoint: mean survival time, dose: 29.0 mg/kg/injection, schedule: Q01DX001 (ip), vehicle: alkali diluted with saline",106 % of control
same,T/C,"endpoint: mean survival time, dose: 40.0 mg/kg/injection, schedule: Q01DX Z (ip), vehicle: alkali diluted with saline",91 % of control
O=C(NC1=C(N2CC2)C(=O)C(NC(=O)OCCO)=C(N2CC2)C1=O)OCCO,T/C,"endpoint: median survival time, dose: 0.18 mg/kg/injection, schedule: Q01DX009 (ip), vehicle: saline",100 % of control
same,T/C,"endpoint: median survival time, dose: 0.39 mg/kg/injection, schedule: Q01DX009 (ip), vehicle: saline",97 % of control
same,T/C,"endpoint: median survival time, dose: 0.75 mg/kg/injection, schedule: Q01DX009 (ip), vehicle: saline",96 % of control and 97 % of control
same,T/C,"endpoint: median survival time, dose: 1.5 mg/kg/injection, schedule: Q01DX009 (ip), vehicle: saline",91 % of control and 100 % of control
same,T/C,"endpoint: median survival time, dose: 3.0 mg/kg/injection, schedule: Q01DX009 (ip), vehicle: saline",108 % of control and 101 % of control
same,T/C,"endpoint: median survival time, dose: 6.0 mg/kg/injection, schedule: Q01DX009 (ip), vehicle: saline",122 % of control and 98 % of control
CCOC(=O)C1CCC(NC(=O)N(CCCl)N=O)CC1 (configuration not stated),T/C,"endpoint: mean survival time, dose: 4.0 mg/kg/injection, schedule: Q01DX001 (ip), vehicle: other",103 % of control and 113 % of control
same,T/C,"endpoint: mean survival time, dose: 8.0 mg/kg/injection, schedule: Q01DX001 (ip), vehicle: other",110 % of control
same,T/C,"endpoint: mean survival time, dose: 14.0 mg/kg/injection, schedule: Q01DX001 (ip), vehicle: other",118 % of control
same,T/C,"endpoint: mean survival time, dose: 31.0 mg/kg/injection, schedule: Q01DX001 (ip), vehicle: other",179 % of control and 203 % of control
same,T/C,"endpoint: mean survival time, dose: 33.0 mg/kg/injection, schedule: Q01DX001 (ip), vehicle: other",169 % of control and 203 % of control
same,T/C,"endpoint: mean survival time, dose: 44.0 mg/kg/injection, schedule: Q01DX001 (ip), vehicle: other",225 % of control
same,T/C,"endpoint: mean survival time, dose: 47.0 mg/kg/injection, schedule: Q01DX001 (ip), vehicle: other",203 % of control and 239 % of control
same,T/C,"endpoint: mean survival time, dose: 66.0 mg/kg/injection, schedule: Q01DX001 (ip), vehicle: other",175 % of control and 303 % of control
same,T/C,"endpoint: mean survival time, dose: 67.0 mg/kg/injection, schedule: Q01DX001 (ip), vehicle: other",155 % of control
same,T/C,"endpoint: mean survival time, dose: 70.0 mg/kg/injection, schedule: Q01DX001 (ip), vehicle: other",151 % of control
